The text below walks through data of patent US20040038888A1 (priority 2002, published 2004).

Assay [1] has as its system CREB phosphorylation. In words: Western blot of phosphorylated CREB, undifferentiated aHNSC. The assay is classed as cell-based, human. The note with it: 10 nM PACAP. On the procedure:
A biopsy from the anterior lateral wall of the lateral ventricle was taken from an adult human patient and enzymatically dissociated in PDD (Papain 2.5 U/ml; Dispase 1 U/ml; Dnase 1 250 U/ml) in DMEM containing 4.5 mg/ml glucose and 37° C. for 20 min. The cells were gently triturated and mixed with three volumes of Human Neural Stem Cell Plating Medium (HNSCPM) (DMEM/F12; 10% fetal bovine serum (FBS)). The cells were pelleted at 250×g for 5 min. The supernatant was subsequently removed and the cells resuspended in HNSCPM, plated out on fibronectin coated culture dishes and incubated at 37° C. in 5% CO2. The following day the expansion of the culture was initiated by change of media to aHNSC culture media (DMEM/F12; BIT 9500; EGF 20 ng/ml; FGF2 20 ng/ml). The aHNSC were split using trypsin and EDTA under standard conditions. FBS was subsequently added to inhibit the reaction and the cells collected by centrifugation at 250×g for 5 min. The aHNSC were replated in aHNSC culture media.
Adult mouse NSC and aHNSC were prepared and cultured as stated in Example 2 (Method A) and Example 1 (Method A). Cultures were exposed to either 10 nM PACAP or EGF (1 nM) and FGF (1 nM) for the times indicated. […] DNA content was detemined by the use of a Pico Green-kit for ds DNA quantitation of cell extracts. […] Phosphorylated CREB protein bands (43 kD) were detected using the ECL-kit (Amersham).
On the technique in general: A western blot detects proteins with antibodies after separation by electrophoresis.

The subject of assay [2] is differentiating neural stem cells. In words: Intracellular ATP assay, differentiating adult mouse NSC, adherent culture. Type of assay: cell-based. The note with it: varying concentrations, adherent conditions, 3 days, relative to control, dose-dependent. As for the experimental part: Adult mouse NSC were cultivated from the anterior lateral wall of the lateral ventricle of 5-6 week old mice as described in Example 2 (Method A).
Mouse neurospheres, cultured as described above, from passage 2, were seeded in DMEM/F12 supplemented with B27 and 1% Fetal Calf Serum into a 96-well plate coated with poly-D-lysine as single cells (30000 cells/well) and cultured over-night. The following day the medium was replaced with Neurosphere medium and PACAP added to the concentrations indicated. After 3 days incubation, intracellular ATP was measured using the ATP-SL kit from BioThema, Sweden, according to the manufacturer's instructions.

Assay [3] deals with CREB phosphorylation. Put plainly: Western blot of phosphorylated CREB, adult mouse NSC, non-adherent. Type of assay: cell-based. The note with it: 10 nM PACAP. As for the experimental part:
Adult mouse NSC and aHNSC were prepared and cultured as stated in Example 2 (Method A) and Example 1 (Method A). Cultures were exposed to either 10 nM PACAP or EGF (1 nM) and FGF (1 nM) for the times indicated. After treatment, the cells were lysed in lysis buffer, as shown in Patrone et al. (Patrone, Andersson et al. 1999). DNA content was detemined by the use of a Pico Green-kit for ds DNA quantitation of cell extracts. Total protein measurements were performed with Nano Orange-kit. Equal amounts of protein were run on a gradient gel 4-12% Bis-Tris gel (NuPage/Mops buffer) and transferred to a nitrocellulose membrane. Western blot was performed and phosphorylated CREB was labelled using a rabbit anti phospho-CREB (1:1000, Upstate biotechnology), a secondary anti rabbit HRP antibodies (1:10.000). Phosphorylated CREB protein bands (43 kD) were detected using the ECL-kit (Amersham).

Assay [4] concerns mouse adult neural stem cells. In words: Intracellular ATP assay, adult mouse NSC, non-adherent culture. Type of assay: cell-based. As for the experimental part: The anterior lateral wall of the lateral ventricle of 5-6 week old mice was enzymatically dissociated in 0.8 mg/ml hyaluronidase and 0.5 mg/ml trypsin in DMEM containing 4.5 mg/ml glucose and 80 units/ml DNase at 37° C. for 20 min. The cells were gently triturated and mixed with three volumes of Neurosphere medium (DMEM/F12, B27 supplement, 12.5 mM HEPES pH7.4) containing 20 ng/ml EGF (unless otherwise stated), 100 units/ml penicillin and 100μg/ml streptomycin. After passing through a 70 μm strainer, the cells were pelleted at 160×g for 5 min. The supernatant was subsequently removed and the cells resuspended in Neurosphere medium supplemented as above, plated out in culture dishes and incubated at 37° C. Neurospheres were ready to be split approximately 7 days after plating.
To split neurosphere cultures, neurospheres were collected by centrifugation at 160×g for 5 min. The neurospheres were resuspended in 0.5 ml Trypsin/EDTA in HBSS (1×), incubated at 37° C. for 2 min and triturated gently to aid dissociation. Following a further 3 min incubation at 37° C. and trituration, 3 volumes of ice cold NSPH-media-EGF were added to stop further trypsin activity. The cells were pelleted at 220×g for 4 min, resuspended in fresh Neurosphere medium supplemented with 20 ng/ml EGF and 1 nM bFGF plated out and incubated at 37° C.
Mouse neurospheres, cultured as described above, from passage 2, were seeded in DMEM/F12 supplemented with B27 into a 96-well plate as single cells (10000 cells/well) to the substances to be measured were added at the concentrations indicated. After 3 days incubation, intracellular ATP was measured using the ATP-SL kit from BioThema, Sweden, according to the manufacturer's instructions. PACAP and VIP were purchased from Bachem. Maxadilan was a kind gift from Richard G Titus, Dept Microbiology, Immunology and Pathology, College of Veterinary Medicine and Biological Sciences, Colorado State University.
In experiments where signalling pathways were examined, cells were seeded as single cells as mentioned above. PACAP, 100 nM, was co incubated with 10 uM PKA inhibitor H89 (Alexis-Biochemicals) or 1 uM PLC inhibitor U73122 (Alexis-Biochemicals) or 1 uM of the PKC inhibitor Gö6976 (Sigma-Aldrich). Cells were incubated for 4 days before measurements of ATP.
In the experiment analysing the combinatory effect of PACAP and EGF, PACAP at 100 nM was co-incubated with 3 nM EGF for 3 days.

Regarding “pituitary adenylate cyclase-activating polypeptide [PACAP]”, the CREB phosphorylation entry in the assay on CREB phosphorylation [1] (15 min) is recorded as “strong upregulation”; with CREB phosphorylation [1] (240 min), “slightly above basal levels”; with CREB phosphorylation [3] (15 min exposure), “upregulated”; with CREB phosphorylation [3] (240 min), “return to basal levels”. For the same substance, the “intracellular ATP levels, and hence cell number” value in assay [2] is given as “statistically significant increase in intracellular ATP levels”; in assay [4] (varying concentrations, non-adherent conditions, 3 days, relative to control, dose-dependent), “statistically significant increase in intracellular ATP levels”. Moreover, the “intracellular ATP levels” value in assay [4] (PACAP 100 nM, 4 days, relative to control) is on record as “significantly increases intracellular ATP levels”. Also, the “intracellular ATP levels, and hence NSC number” value in assay [4] (PACAP 100 nM, EGF 3 nM, alone or combined, 3 days) is “increased intracellular ATP levels”.
